This is an account of results in article PMC6370202, “The catabolism of 3,3’-thiodipropionic acid in Variovorax paradoxus strain TBEA6: A proteomic analysis” (PLoS ONE, 2019).

One experiment addresses T1, Ech-20 (VPARA_05520) (Variovorax paradoxus, UniProt A0A0H2MCT8).
T1 construct: recombinant from pET-32a(+)::ech-20 in E. coli BL21 (DE3) pLysS; Ni-Sepharose purified
T1 sequence (A0A0H2MCT8 1-154): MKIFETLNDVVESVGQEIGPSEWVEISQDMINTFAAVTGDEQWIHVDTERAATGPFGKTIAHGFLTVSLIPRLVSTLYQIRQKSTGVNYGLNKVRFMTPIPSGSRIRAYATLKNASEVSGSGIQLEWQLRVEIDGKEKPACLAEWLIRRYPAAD
The experiment in a line: thermal shift assay, SYPRO Orange. Format: binding. The following applies: 2 uM protein, 2 mM ligand, 100 mM Tris/HCl pH 8.0; increased stability; no shift with TDP.

In experiment [1] the target is T2, PctRe (propionyl-CoA transferase of Ralstonia eutropha) (Cupriavidus necator, UniProt Q0K874).
T2 construct: gene pct; recombinant from pET-19b::pctRe in E. coli BL21 (DE3) pLysS; N-terminal His-tag; Ni-Sepharose purified
T2 sequence (Q0K874 1-542): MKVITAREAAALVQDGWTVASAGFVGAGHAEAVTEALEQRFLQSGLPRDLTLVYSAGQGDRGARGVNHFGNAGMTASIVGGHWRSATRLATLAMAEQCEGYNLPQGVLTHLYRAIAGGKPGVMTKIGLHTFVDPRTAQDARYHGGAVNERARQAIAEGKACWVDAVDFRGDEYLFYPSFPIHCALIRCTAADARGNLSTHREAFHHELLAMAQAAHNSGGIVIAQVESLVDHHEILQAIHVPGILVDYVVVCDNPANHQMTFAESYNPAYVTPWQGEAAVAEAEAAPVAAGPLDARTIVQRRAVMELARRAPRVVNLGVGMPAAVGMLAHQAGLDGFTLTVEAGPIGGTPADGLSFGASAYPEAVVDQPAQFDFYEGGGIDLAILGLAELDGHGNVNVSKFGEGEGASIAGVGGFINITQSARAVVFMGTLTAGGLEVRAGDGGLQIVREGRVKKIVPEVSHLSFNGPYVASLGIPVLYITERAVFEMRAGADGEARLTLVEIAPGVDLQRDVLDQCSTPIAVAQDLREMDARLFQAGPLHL
Put plainly: enzymatic CoA transfer, product by HPLC/MS. Format: biochemical. The following applies: 2 mM TDP, 1 mM acetyl-CoA, 20 ug PctRe in 1 ml, 100 mM Tris/HCl pH 8.0, 30 °C, 45 min.

As to `CC(C)(COP(=O)(O)OP(=O)(O)OC[C@H]1O[C@@H](n2cnc3c(N)ncnc32)[C@H](O)[C@@H]1OP(=O)(O)O)[C@@H](O)C(=O)NCCC(=O)NCCSC(=O)CCSCCC(=O)O` [TDP-CoA], the “shift in the melting temperature” value at Ech-20 (VPARA_05520) is reported as “a shift in the melting temperature of Ech-20 in the presence of TDP-CoA was detected”.

`O=C(O)CCSCCC(=O)O` [TDP]: the “enzymatic CoA transfer, product by HPLC/MS” value in experiment [1] is “transfer of CoA from acetyl-CoA to TDP was accomplished using recombinant PctRe”.

Take `CC(=O)SCCNC(=O)CCNC(=O)[C@H](O)C(C)(C)COP(=O)(O)OP(=O)(O)OC[C@H]1O[C@@H](n2cnc3c(N)ncnc32)[C@H](O)[C@@H]1OP(=O)(O)O` [acetyl-CoA]: the “enzymatic CoA transfer, product by HPLC/MS” value in experiment [1] (CoA donor) was “transfer of CoA from acetyl-CoA to TDP was accomplished using recombinant PctRe”.
